Measurements: paper PMC4800991 (Molecular pharmaceutics, 2015)
Blank lines part the entries; values can stand above or below the compound they belong to.

Key:
Format in all cases: cell-based
[1] = target: T1, human thiamine transporter 2 (hTHTR-2) (Homo sapiens, UniProt Q9BZV2); assay: [3H]MPP+ uptake in HEK-hTHTR-2 cells with and without fedratinib
T1 sequence (Q9BZV2 1-496): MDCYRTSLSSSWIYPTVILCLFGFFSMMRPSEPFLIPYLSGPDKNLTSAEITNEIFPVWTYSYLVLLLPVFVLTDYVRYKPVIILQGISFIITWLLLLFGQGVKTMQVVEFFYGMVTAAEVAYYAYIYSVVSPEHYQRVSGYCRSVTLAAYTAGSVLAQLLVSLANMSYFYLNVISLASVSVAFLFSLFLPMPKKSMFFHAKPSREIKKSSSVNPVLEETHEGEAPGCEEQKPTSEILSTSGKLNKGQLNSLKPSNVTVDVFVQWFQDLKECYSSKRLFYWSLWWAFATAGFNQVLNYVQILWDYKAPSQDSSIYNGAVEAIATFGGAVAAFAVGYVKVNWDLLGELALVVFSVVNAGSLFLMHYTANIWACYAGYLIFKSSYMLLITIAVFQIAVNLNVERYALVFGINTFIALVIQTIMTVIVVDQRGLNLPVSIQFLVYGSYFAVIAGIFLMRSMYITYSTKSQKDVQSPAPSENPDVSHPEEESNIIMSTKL

[2] = target: T1, human thiamine transporter 2 (hTHTR-2); assay: inhibition of [3H]thiamine and […]metformin uptake in HEK-hTHTR-2 cells at […]
[3] = target: T1, human thiamine transporter 2 (hTHTR-2); assay: saturable [3H]thiamine uptake
[4] = target: T1, human thiamine transporter 2 (hTHTR-2); assay: inhibition of [3H]thiamine uptake in HEK-hTHTR-2 cells
[5] = target: T1, human thiamine transporter 2 (hTHTR-2); assay: saturable […]metformin uptake

Structure (SMILES): C[n+]1ccc(-c2ccccc2)cc1 [MPP+, 1-methyl-4-phenylpyridinium]
[3H]MPP+ uptake in HEK-hTHTR-2 cells with and without fedratinib [1]: 1-methyl-4-phenylpyridinium (MPP^+) and the histamine H2-receptor antagonist famotidine were substrates of hTHTR-2

Structure (SMILES): Cc1ncc(C[n+]2cccc(CCO)c2C)c(N)n1 [pyrithiamine]
inhibition of [3H]thiamine and [14C]metformin uptake in HEK-hTHTR-2 cells at 200 [2]: antithiamine analogues (amprolium and pyrithiamine) and prescription drugs (chloroquine, verapamil, and famotidine) were shown to be inhibitors

Structure (SMILES): Cc1ncc(C[n+]2csc(CCO)c2C)c(N)n1 [thiamine]
IC50 [3]: 1030 ± 120 nM

IC50 [4]: 244 ± 28.4 µM
Structure (SMILES): [H]/N=C(/N)N/C(=N/[H])NCCc1ccccc1 [phenformin]

Structure (SMILES): CN(C)C(=N)N=C(N)N [metformin, 1,1-dimethylbiguanide]
IC50 [5]: 680 ± 140 µM
